Source: ChEMBL document CHEMBL2086226, “Synthesis of paclitaxel-BGL conjugates” (Bioorg Med Chem, 2012)
The source made the active and inactive calls. No cut-off for these calls is given here.

How the values were obtained:
[1] = Octanol-water partition coefficient, log P of the compound; format: physicochemical
A549 = experiment: Antitumor activity against human A549 cells xenografted in nude BALB/c mouse assessed as tumor growth inhibition at 3.51 umol/kg, ip administered on day 1, 4 and 7 post-inoculation measured up to 14 days; format: functional, organism-based

| logP [1] | Compound | growth inhibition (GI) (A549) |
| --- | --- | --- |
| 1.99 | CC(=O)O[C@H]1C(=O)[C@]2(C)[C@@H](OC(=O)CCC(=O)OC(COC(CO)CO)COC(CO)CO)C[C@H]3OC[C@@]3(OC(C)=O)[C@H]2[C@H](OC(=O)c2ccccc2)[C@]2(O)C[C@H](OC(=O)[C@H](O)[C@@H](NC(=O)c3ccccc3)c3ccccc3)C(C)=C1C2(C)C | – |
| 1.46 | CC(=O)O[C@H]1C(=O)[C@@]2(C)[C@H]([C@H](OC(=O)c3ccccc3)[C@]3(O)C[C@H](OC(=O)[C@H](O)[C@@H](NC(=O)CCC(=O)OC(COC(CO)CO)COC(CO)CO)c4ccccc4)C(C)=C1C3(C)C)[C@]1(OC(C)=O)CO[C@@H]1C[C@@H]2O | Active |
| 2.26 | CC(=O)O[C@H]1C(=O)[C@@]2(C)[C@H]([C@H](OC(=O)c3ccccc3)[C@]3(O)C[C@H](OC(=O)[C@H](OC(=O)CCC(=O)OC(COC(CO)CO)COC(CO)CO)[C@@H](NC(=O)c4ccccc4)c4ccccc4)C(C)=C1C3(C)C)[C@]1(OC(C)=O)CO[C@@H]1C[C@@H]2O | – |
| 2.25 | CC(=O)O[C@H]1C(=O)[C@@]2(C)[C@H]([C@H](OC(=O)c3ccccc3)[C@]3(O)C[C@H](OC(=O)[C@H](O)[C@@H](NC(=O)c4ccccc4)c4ccccc4)C(C)=C1C3(C)C)[C@]1(OC(C)=O)CO[C@@H]1C[C@@H]2O [PACLITAXEL] | Active |
